Experimental data taken from ChEMBL document CHEMBL5465560, “Selectivity Literature for EUbOPEN Chemogenomic Library” (2024).
Values belong to the molecule of their own block, whether it stands above or below them.

What was measured:
[1] = target: Insulin-like growth factor 1 receptor (Homo sapiens, UniProt P08069); experiment: Selectivity interaction (Kinase panel (Z-LYTE Assay)) EUB0001632a IGF1R; details: at 10 µM
[2] = target: T1, Serine/threonine-protein kinase TBK1 (Homo sapiens) (UniProt Q9UHD2); experiment: Selectivity interaction (Kinase panel (Z-LYTE Assay)) EUB0001632a TBK1; details: at 10 µM
T1 sequence (whole entry): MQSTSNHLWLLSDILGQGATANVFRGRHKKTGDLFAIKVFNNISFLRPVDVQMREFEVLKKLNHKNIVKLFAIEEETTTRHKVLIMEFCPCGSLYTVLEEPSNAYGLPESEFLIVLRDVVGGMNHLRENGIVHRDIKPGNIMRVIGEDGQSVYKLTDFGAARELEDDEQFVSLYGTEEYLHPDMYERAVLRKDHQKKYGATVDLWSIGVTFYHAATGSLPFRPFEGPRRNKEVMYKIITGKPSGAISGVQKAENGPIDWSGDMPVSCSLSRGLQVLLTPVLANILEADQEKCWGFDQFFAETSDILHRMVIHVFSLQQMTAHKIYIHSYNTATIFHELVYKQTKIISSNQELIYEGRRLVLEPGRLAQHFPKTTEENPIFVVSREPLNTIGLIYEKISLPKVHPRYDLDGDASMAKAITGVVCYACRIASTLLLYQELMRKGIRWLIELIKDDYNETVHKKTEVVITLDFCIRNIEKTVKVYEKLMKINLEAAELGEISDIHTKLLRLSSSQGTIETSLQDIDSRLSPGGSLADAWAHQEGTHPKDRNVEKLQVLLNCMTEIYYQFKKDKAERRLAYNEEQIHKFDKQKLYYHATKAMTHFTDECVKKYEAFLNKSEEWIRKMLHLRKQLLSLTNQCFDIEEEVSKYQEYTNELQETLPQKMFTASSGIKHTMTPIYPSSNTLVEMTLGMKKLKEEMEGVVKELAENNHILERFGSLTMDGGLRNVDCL

[3] = target: T2, Aurora kinase A (Homo sapiens) (UniProt O14965); experiment: Selectivity interaction (Kinase panel (DSF assay)) EUB0001489b STK6
T2 sequence (whole entry): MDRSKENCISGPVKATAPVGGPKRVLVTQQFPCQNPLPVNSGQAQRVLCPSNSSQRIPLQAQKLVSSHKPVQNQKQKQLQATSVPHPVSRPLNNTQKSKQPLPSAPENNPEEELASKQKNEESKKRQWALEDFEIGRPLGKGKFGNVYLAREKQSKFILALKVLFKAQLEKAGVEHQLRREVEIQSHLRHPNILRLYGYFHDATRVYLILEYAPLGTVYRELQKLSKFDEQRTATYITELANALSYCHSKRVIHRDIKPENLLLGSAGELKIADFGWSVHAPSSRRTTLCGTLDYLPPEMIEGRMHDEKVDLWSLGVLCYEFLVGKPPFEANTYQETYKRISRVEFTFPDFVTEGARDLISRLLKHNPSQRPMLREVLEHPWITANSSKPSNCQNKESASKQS

[4] = target: Receptor-type tyrosine-protein kinase FLT3 (Homo sapiens) (UniProt P36888); experiment: Selectivity interaction (ProQinase) EUB0000171b FLT3; details: at 1 µM
[5] = target: G protein-coupled receptor kinase 5 (Homo sapiens, UniProt P34947); experiment: Selectivity interaction (ProQinase) EUB0000171b GRK5
Chain of G protein-coupled receptor kinase 5 (P34947 whole entry, looked up): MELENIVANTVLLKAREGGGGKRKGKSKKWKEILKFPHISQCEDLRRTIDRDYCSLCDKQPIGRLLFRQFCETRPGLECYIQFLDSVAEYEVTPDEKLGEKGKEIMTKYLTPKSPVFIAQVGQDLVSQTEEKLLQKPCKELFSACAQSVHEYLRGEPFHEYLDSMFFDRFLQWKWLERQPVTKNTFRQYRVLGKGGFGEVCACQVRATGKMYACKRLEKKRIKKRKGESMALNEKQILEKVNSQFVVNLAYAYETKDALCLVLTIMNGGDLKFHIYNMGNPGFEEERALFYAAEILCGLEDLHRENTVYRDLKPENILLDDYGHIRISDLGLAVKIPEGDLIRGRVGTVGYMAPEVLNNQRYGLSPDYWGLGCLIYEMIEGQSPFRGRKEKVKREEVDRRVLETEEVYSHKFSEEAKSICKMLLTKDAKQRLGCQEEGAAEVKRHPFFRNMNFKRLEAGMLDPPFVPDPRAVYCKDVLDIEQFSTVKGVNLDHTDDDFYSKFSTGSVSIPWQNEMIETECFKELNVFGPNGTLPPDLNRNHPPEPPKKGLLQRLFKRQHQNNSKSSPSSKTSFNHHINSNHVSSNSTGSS

[6] = target: T3, cGMP-dependent protein kinase 2 (Homo sapiens) (UniProt Q13237); experiment: Selectivity interaction (KinomeScan (DiscoverX)) EUB0000695a PRKG2; details: at 100 nM
T3 sequence (whole entry): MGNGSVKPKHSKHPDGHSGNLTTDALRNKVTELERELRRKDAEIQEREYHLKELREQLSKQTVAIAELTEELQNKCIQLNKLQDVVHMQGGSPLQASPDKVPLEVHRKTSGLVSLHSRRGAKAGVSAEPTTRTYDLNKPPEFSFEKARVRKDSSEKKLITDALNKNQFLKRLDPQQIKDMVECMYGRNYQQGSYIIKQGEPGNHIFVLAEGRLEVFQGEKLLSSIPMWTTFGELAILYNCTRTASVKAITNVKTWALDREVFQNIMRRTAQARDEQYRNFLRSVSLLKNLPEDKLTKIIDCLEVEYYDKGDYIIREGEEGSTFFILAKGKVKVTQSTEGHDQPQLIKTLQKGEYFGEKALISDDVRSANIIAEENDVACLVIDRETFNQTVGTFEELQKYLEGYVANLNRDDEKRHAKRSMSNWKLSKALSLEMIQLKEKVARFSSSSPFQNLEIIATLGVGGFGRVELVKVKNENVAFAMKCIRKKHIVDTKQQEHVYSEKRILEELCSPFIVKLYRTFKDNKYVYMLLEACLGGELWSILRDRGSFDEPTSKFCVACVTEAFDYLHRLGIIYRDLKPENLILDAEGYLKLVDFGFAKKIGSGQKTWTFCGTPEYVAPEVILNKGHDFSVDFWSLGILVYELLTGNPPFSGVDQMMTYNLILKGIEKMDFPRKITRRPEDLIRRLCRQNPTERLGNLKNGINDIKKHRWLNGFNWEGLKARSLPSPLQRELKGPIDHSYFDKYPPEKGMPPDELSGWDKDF

[7] = target: Mitogen-activated protein kinase 6 (Homo sapiens) (UniProt Q16659); experiment: Selectivity interaction (KinomeScan (DiscoverX)) EUB0000045b MAPK6
Chain of Mitogen-activated protein kinase 6 (Homo sapiens) (Q16659 whole entry, canonical isoform): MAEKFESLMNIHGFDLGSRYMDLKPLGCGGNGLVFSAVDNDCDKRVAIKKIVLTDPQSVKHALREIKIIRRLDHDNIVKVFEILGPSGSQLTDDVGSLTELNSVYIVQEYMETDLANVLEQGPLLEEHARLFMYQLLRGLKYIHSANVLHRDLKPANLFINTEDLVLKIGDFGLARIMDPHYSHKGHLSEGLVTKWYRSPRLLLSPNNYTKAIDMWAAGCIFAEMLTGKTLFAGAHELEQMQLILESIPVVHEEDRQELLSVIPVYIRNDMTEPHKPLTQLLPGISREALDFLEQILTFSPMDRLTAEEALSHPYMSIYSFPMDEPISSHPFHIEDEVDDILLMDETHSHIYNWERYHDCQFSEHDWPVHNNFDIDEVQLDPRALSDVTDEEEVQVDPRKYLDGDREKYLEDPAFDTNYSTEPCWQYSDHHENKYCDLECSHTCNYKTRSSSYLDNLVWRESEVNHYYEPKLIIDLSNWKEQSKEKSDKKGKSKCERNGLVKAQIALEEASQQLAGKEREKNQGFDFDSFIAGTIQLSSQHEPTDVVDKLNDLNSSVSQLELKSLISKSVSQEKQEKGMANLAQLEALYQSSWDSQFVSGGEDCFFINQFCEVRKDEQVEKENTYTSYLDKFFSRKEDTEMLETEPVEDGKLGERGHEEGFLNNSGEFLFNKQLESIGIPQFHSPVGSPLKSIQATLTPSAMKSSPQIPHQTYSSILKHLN

[8] = target: Receptor-interacting serine/threonine-protein kinase 2 (Homo sapiens, UniProt O43353); experiment: Selectivity interaction (KinomeScan (DiscoverX)) EUB0001079a RIPK2; details: at 1 µM
Chain of Receptor-interacting serine/threonine-protein kinase 2 (O43353 whole entry): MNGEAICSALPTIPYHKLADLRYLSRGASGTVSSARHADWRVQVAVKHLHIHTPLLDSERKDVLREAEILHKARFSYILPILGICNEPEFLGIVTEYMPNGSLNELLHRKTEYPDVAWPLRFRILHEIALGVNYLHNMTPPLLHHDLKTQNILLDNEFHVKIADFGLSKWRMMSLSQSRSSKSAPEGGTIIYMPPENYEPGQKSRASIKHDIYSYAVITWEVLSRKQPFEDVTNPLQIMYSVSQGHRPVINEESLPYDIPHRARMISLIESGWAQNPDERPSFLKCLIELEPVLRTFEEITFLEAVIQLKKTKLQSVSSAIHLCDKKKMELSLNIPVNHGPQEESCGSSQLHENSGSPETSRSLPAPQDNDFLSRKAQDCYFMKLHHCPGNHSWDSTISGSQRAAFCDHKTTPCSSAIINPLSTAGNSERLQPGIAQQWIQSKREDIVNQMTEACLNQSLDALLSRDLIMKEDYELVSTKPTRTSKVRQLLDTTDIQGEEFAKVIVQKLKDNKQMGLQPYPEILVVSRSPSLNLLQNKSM

[9] = target: Interferon-induced, double-stranded RNA-activated protein kinase (Homo sapiens) (UniProt P19525); experiment: Selectivity interaction (KinomeScan (DiscoverX)) EUB0000229b EIF2AK2; details: at 10 µM
Chain of Interferon-induced, double-stranded RNA-activated protein kinase (Homo sapiens) (P19525 whole entry): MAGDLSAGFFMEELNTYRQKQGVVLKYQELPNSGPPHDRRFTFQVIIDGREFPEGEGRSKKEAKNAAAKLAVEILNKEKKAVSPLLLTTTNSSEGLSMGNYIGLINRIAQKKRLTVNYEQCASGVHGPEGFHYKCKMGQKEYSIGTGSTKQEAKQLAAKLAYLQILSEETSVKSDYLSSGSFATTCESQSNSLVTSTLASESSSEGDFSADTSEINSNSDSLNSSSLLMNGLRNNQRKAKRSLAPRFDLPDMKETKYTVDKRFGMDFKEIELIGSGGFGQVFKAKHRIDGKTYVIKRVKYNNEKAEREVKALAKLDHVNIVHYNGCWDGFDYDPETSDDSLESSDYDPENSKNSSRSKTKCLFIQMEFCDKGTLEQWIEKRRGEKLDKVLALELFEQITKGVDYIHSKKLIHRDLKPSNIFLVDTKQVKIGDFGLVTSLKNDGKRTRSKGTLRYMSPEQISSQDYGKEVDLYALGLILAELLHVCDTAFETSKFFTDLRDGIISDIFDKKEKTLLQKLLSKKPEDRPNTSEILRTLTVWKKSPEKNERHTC

[10] = target: Myosin light chain kinase, smooth muscle (Homo sapiens, UniProt Q15746); experiment: Selectivity interaction (KinomeScan (DiscoverX)) EUB0000229b MYLK; details: at 10 µM
[11] = target: Mitogen-activated protein kinase 6 (Homo sapiens) (UniProt Q16659); experiment: Selectivity interaction (KinomeScan (DiscoverX)) EUB0000092b MAPK6; details: at 10 µM
[12] = target: Casein kinase I isoform delta (Homo sapiens, UniProt P48730); experiment: Selectivity interaction (KinomeScan (DiscoverX)) EUB0000618a CSNK1D; details: at 10 µM
Chain of Casein kinase I isoform delta (P48730 whole entry, looked up, canonical isoform): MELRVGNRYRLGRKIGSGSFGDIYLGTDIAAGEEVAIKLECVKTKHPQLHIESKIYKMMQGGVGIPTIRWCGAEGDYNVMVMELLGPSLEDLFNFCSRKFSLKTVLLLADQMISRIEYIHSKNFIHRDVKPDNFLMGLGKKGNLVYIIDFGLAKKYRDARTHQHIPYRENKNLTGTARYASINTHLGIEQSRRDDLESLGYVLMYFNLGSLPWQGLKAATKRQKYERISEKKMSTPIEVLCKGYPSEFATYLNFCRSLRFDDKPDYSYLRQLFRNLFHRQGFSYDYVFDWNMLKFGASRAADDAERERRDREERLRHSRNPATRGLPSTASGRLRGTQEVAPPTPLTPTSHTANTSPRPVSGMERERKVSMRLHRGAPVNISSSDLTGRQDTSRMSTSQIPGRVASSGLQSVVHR

[13] = target: Serine/threonine-protein kinase MARK2 (Homo sapiens) (UniProt Q7KZI7); experiment: Selectivity interaction (KinomeScan (DiscoverX)) EUB0001619a MARK2; details: at 1 µM
Chain of Serine/threonine-protein kinase MARK2 (Homo sapiens) (Q7KZI7 whole entry): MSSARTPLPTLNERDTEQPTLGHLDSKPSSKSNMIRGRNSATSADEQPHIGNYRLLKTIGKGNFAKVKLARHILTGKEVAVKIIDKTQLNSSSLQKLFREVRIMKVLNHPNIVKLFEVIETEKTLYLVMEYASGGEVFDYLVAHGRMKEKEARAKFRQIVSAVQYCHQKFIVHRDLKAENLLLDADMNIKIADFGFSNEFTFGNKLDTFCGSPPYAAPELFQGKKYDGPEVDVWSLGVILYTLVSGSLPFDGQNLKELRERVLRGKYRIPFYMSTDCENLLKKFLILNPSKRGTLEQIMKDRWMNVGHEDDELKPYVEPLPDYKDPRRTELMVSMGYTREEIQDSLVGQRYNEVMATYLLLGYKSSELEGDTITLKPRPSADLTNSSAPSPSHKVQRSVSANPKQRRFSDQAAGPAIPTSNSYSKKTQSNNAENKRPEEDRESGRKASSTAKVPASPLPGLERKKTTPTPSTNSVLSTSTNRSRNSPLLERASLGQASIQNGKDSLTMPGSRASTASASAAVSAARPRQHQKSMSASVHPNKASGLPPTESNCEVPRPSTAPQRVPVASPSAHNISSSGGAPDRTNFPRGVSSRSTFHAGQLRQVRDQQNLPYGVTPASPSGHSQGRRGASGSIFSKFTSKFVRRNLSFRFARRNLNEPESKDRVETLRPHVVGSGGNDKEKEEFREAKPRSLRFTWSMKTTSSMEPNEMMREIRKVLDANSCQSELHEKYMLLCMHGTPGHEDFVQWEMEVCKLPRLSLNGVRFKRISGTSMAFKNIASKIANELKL

Chain of Insulin-like growth factor 1 receptor (P08069 31-736 limits assumed): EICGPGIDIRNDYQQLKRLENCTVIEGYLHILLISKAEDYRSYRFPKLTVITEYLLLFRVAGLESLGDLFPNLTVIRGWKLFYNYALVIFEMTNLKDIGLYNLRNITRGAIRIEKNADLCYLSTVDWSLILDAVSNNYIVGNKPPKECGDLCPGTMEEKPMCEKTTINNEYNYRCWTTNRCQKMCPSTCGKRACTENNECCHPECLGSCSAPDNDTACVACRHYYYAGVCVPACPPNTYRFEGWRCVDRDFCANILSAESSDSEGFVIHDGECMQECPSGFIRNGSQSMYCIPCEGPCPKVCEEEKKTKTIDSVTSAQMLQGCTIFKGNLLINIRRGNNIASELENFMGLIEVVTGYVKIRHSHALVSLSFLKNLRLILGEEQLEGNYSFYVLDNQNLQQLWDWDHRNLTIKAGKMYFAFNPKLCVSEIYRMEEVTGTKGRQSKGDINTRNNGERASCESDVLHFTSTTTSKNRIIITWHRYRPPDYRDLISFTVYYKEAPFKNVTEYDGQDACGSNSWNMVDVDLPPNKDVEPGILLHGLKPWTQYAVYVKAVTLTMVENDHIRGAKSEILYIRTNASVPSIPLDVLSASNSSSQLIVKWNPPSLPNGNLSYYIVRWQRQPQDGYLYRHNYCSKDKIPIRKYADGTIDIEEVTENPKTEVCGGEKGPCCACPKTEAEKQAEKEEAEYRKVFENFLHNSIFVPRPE
Chain of Insulin-like growth factor 1 receptor (P08069 741-1367 limits assumed): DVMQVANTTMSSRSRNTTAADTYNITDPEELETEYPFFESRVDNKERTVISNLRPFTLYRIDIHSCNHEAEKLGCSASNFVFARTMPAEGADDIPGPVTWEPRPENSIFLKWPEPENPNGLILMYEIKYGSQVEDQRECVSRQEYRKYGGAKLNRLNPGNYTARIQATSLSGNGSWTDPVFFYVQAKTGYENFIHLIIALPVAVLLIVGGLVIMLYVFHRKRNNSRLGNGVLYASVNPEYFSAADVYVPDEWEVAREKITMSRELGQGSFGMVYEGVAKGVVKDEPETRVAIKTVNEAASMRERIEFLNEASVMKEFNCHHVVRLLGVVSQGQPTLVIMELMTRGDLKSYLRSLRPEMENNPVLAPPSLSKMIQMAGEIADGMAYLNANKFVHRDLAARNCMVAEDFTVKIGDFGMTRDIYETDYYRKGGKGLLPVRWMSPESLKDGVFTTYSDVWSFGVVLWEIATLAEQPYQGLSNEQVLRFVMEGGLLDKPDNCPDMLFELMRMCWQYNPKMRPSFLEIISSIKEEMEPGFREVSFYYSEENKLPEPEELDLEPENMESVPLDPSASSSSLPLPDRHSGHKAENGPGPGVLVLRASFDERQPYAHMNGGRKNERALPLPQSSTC

% of control [1]: 3.73%
% of control [2]: -4.28%
SMILES: Cn1cc(-n2cnc3c(NCc4nc5cc(Cl)c(Cl)cc5[nH]4)nc(N4CCOCC4)nc32)cn1

dTM [3]: 4.2 K
SMILES: CN1CCN(C(=O)c2ccc3cc2OCCOCCNc2ccn4ncc-3c4n2)CC1

% of control [4]: 94%
% of control ([5]; at 1 µM): 97%
% of control ([5]; at 5 µM): 94%
SMILES: C=CC(=O)Nc1cccc(C(=O)Nc2ccc(Nc3cc(-c4[nH]c(SC)nc4C)ccn3)cc2)c1

SMILES: Cc1cc(F)c(C(=O)Nc2cccc(-c3nncn3C(C)C)n2)cc1-n1cnc(C2CC2)c1
% of control [6]: 88%

SMILES: C=CC(=O)Nc1cc(-n2c(=O)ccc3cnc4ccc(-c5ccc(NS(C)(=O)=O)cc5)cc4c32)ccc1C
% of control ([7]; at 1 µM): 82%
% of control ([7]; at 10 µM): 100%

SMILES: Nc1cnc(N2CCc3cc(S(=O)(=O)Nc4c(F)cc(Cl)cc4F)cc(N4CCCC4=O)c32)nc1 [TP-020n]
% of control [8]: 53%

SMILES: COc1cc(N(C)c2ccnc3ccc(C(F)(F)F)cc23)cc(OC)c1OC
% binding [9]: 58%
% binding [10]: 92%

SMILES: CCC(=O)N1CCN(c2ccc(-n3c(=O)ccc4cnc5ccc(-c6cnc7ccccc7c6)cc5c43)cc2C(F)(F)F)CC1
% of control [11]: 1.8%

SMILES: O[C@H]1CC[C@H](Nc2ncc3nc(Nc4c(F)cc(F)cc4F)n([C@H]4CCOC4)c3n2)CC1
% of control [12]: 83%

SMILES: N#Cc1cccc(-c2c[nH]c3ncnc(N4CCOCC4)c23)c1
% of control [13]: 43%
